Experimental data reported in PMC11597817, “Modulation of Multispecific Transporters by Uncaria tomentosa Extract and Its Major Phytoconstituents” (Pharmaceutics, 2024).

Tests used:
Experiment in all cases: Antiproliferative MTT assay
Type in all cases: cell-based, human
Conditions in all cases: 30 μM pure natural product, 72 h
A2780 = test system: A2780
Method: (§1) For the determination of the antiproliferative properties of the prepared extract and selected alkaloids (isopteropodine, mitraphylline, and uncarine D), an MTT assay was applied on our […] cell panel (see Table S4). […] All were maintained in a minimal essential medium completed with 10% fetal bovine serum, 1% non-essential amino acids, and 1% penicillin–streptomycin at 37 °C in a humidified atmosphere containing 5% CO2. All cell lines were purchased from the European Collection of Cell Cultures (Salisbury, UK), except for SiHa and C33A, which were from the American Tissue Culture Collection, LGC Standards GmbH (Wesel, Germany). Cell culture media and supplements were obtained from Lonza Group Ltd. (Basel, Switzerland). Cells were seeded into 96-well plates (C33A 10,000/well, all others 5000/well); after overnight incubation, the test substances were added and incubated for another 72 h under cell-culturing conditions. Uncaria tomentosa extract and the alkaloids were tested in the 1–90 μg/mL and 1–30 μM ranges, respectively. Finally, 20 μL of 5 mg/mL MTT solution was added to each well and incubated for 4 h; the medium was discarded, and the precipitated formazan crystals were dissolved in DMSO for 60 min with shaking. The absorbance was determined using a microplate reader (SPECTROstar Nano, BMG Labtech GmbH). Two independent experiments were performed with five parallels for each condition. Cisplatin, a clinically used anticancer agent (Ebewe GmbH, Unterach, Austria), was included as a reference compound. Calculations were conducted using the GraphPad Prism 10.0 software (GraphPad Software Inc., San Diego, CA, USA).
(§2) Table S4 – Antiproliferative properties of Uncaria tomentosa extract, three natural products (isopteropodine, mitraphylline, and uncarine D) and the
(§3) reference agent cisplatin.
(§4) Cell line Uncaria tomentosa isopteropodine mitraphylline uncarine D [95% confidence
(§5) 1: The highest applied concentration was 90 μg/mL and 30 μM for the extract and the pure natural products, respectively.
(§6) 2: Inhibitions less than 20% compared to the untreated control were regarded as negligible and were not given numerically.

C33A = test system: C33A
Method: as §1, §2, §3, §4, §5, §6

HEK293-Mock-B = test system: HEK293-Mock-B
Method: as §1, §2, §3, §4, §5, §6

HEK293-Mock = test system: HEK293-Mock
Method: as §1, §2, §3, §4, §5, §6

HeLa = test system: HeLa
Method: as §1, §2, §3, §4, §5, §6

MCF7 = test system: MCF7
Method: as §1, §2, §3, §4, §5, §6

MDA-MB-231 = test system: MDA-MB-231
Method: as §1, §2, §3, §4, §5, §6

SiHa = test system: SiHa
Method: as §1, §2, §3, §4, §5, §6

T47D = test system: T47D
Method: as §1, §2, §3, §4, §5, §6

Compound | Cell growth inhibition at the highest concentration (% ± SEM) (A2780) [%] | Cell growth inhibition at the highest concentration (% ± SEM) (C33A) [%] | Cell growth inhibition at the highest concentration (% ± SEM) (HEK293-Mock-B) [%] | Cell growth inhibition at the highest concentration (% ± SEM) (HEK293-Mock) [%] | Cell growth inhibition at the highest concentration (% ± SEM) (HeLa) [%] | Cell growth inhibition at the highest concentration (% ± SEM) (MCF7) [%] | Cell growth inhibition at the highest concentration (% ± SEM) (MDA-MB-231) [%] | Cell growth inhibition at the highest concentration (% ± SEM) (SiHa) [%] | Cell growth inhibition at the highest concentration (% ± SEM) (T47D) [%]
COC(=O)C1=CO[C@@H](C)[C@H]2CN3CC[C@]4(C(=O)Nc5ccccc54)[C@@H]3C[C@H]12 [mitraphylline] | < 20 | < 20 | < 20 | < 20 | < 20 | < 20 | < 20 | 26.22 ± 1.12 | < 20
COC(=O)C1=CO[C@@H](C)[C@@H]2CN3CC[C@@]4(C(=O)Nc5ccccc54)[C@@H]3C[C@H]12 [isopteropodine] | < 20 | < 20 | < 20 | < 20 | < 20 | < 20 | < 20 | 27.38 ± 2.72 | < 20
